The test system of the assay is ornithine decarboxylase (ODC). Kind of assay: inhibition of TPA induction of ornithine decarboxylase (ODC) activity. It counts as in vivo. Particulars: for IC80: IC80 column; for IC60: concentration which results in 60% inhibition. An excerpt: The retinoid-like activity of these compounds is confirmed through the classic measure of retinoic acid activity involving the effects of retinoic acid on ornithine decarboxylase. The original work on the correlation between retinoic acid and decrease in cell proliferation was done by Verma & Boutwell, Cancer Research, 1977, 37,2196-2201. That reference discloses that ornithine decarboxylase (ODC) activity increased precedent to polyamine biosynthesis. It has been established elsewhere that increases in polyamine synthesis can be correlated or associated with cellular proliferation. Thus, if ODC activity could be inhibited, cell hyperproliferation could be modulated. Although all causes for ODC activity increases are unknown, it is known that 12-0-tetradecanoylphorbol-13-acetate (TPA) induces ODC activity. Retinoic acid inhibits this induction of ODC activity by TPA. […] The results of this assay for certain exemplary compounds of the invention are shown in Table 1 below, wherein either the IC80 or IC60 value for each exemplary compound is indicated in namolar concentration units. (As is known in the art, the IC60 value is that concentration of the compound (in nanomols) which results in 60% inhibition.)

In general, IC80 refers to the point of the concentration-response curve where the effect stands at 80%.

The compound `CC1=C(/C=C/C#Cc2ccc(C(=O)O)cn2)C(C)(C)CCS1` [Compound 4, 6-[4'-(2",6",6"-Trimethyl-3"-thioxacyclohex-1"-enyl)-but-3'(E) -ene-1'-ynyl]nicotinic Acid] gave an IC80 of 33.6 nM.
`CCOC(=O)c1ccc(C#C/C=C/C2=C(C)SCCC2(C)C)nc1` [Compound 3, Ethyl 6-[4'-(2",6",6"-Trimethyl-3"-thioxacyclohex-1"-enyl)-but-3'(E)-ene-1'-ynyl]nicotinate]: the IC80 stood at 28 nM.
On to `CC1=C(/C=C/C#Cc2ccc(C(=O)O)cc2)C(C)(C)CCS1` [Compound 2, 4-[4'-(2",6",6"-Trimethyl-3"-thioxacyclohex-1"-enyl) -but-3'(E)-ene-1'-ynyl]benzoic Acid], for which the IC60 was 1.4 nM.
Still for that read-out and setting: as for `CCOC(=O)c1ccc(C#C/C=C/C2=C(C)SCCC2(C)C)cc1` [Compound 1, Ethyl 4-[4'-(2",6",6",-Trimethyl-3"-thioxacyclohex-1"-enyl)-but-3'(E)-ene-1'-ynyl]benzoate], the figure is 3.8 nM.
